Test results reported in patent US20180074053A1 (priority 2016, published 2018).
Where two headings read alike, the source gives them in different places. Non-standard residues stand in square brackets, D forms with d. No end group written: not given here.

What was measured:
[1] = system: HEK293T cells; settings: 0.0037-0.1 mM; FIG. 4
Experimental: Real-time Ca2+ flux assays. To further validate the GPCRProfiler results, we established a real-time Ca2+ flux assay using a FlexStation 3 Microplate Reader (Molecular Devices). […] The Fluo-4 Direct™ Calcium Assay Kits (Life Technologies), which allows direct addition to wells containing cells growing in culture media without the requirement of media removal or a wash step, is used to monitor Ca2+ flux in cells according to the manufacturer's protocol. Briefly, HEK293T cells are plated and cultured in 96-well microplates to near confluence. The microplates containing cells are removed from the incubator and an equal volume of 2× Fluo-4 Direct™ calcium reagent loading solution is added directly to wells containing cells in culture medium. The plates are incubated for 30 minutes at 37° C. and 30 minutes at room temperature. Then the plates (no need to remove the medium or Fluo-4 Direct™ calcium reagent) are placed on FlexStation 3 with settings appropriate for excitation at 494 nm and emission at 516 nm. FlexStation 3 can directly transfer reagents from 96-well source plates to a read plate one column at a time. […] Shaded shapes are negative controls.

[2] = biological target: NK1 (Homo sapiens, UniProt P25103); experiment: cell-based
Experimental: (§1) The platform uses ChemiScreen GPCR stable cell lines that are used for real-time calcium flux assays to rapidly, screen a spectrum of GPCRs. […] Percentage activation values were determined upon initial addition of compound(s). Percentage activation and inhibition values were determined for each GPCR relative to the reference compounds.
(§2) Assays were performed according to the manufacturer's instructions. […] The assay plate was read by the FLIPR TETRA® (Molecular Devices, Sunnyvale, Calif.). All assay plate data were subjected to appropriate baseline corrections and the maximum fluorescence values were processed to calculate percentage activation (relative to ECmax reference agonist and vehicle control values).

[3] = biological target: MC5 (Homo sapiens, UniProt P33032); experiment: cell-based
Experimental: as §1, §2

[4] = biological target: NMUR2 (Homo sapiens, UniProt Q9GZQ4); experiment: cell-based
Experimental: as §1, §2

[5] = biological target: Motilin (Homo sapiens, UniProt O43193); experiment: cell-based
Experimental: as §1, §2

[6] = biological target: NPBW1 (Homo sapiens, UniProt P48145); experiment: cell-based
Experimental: as §1, §2

[7] = biological target: MC4 (Homo sapiens, UniProt P32245); experiment: cell-based
Experimental: as §1, §2

[8] = system: C57BL/6J mice; experiment: Oral glucose tolerance test (OGTT); assay type: in vivo, mouse
Experimental: (§3) C57BL/6J mice were received from Jackson Laboratories at 4 weeks old and aged to 7 weeks and then grouped by body weight into 4 groups of 10. The mice were fasted overnight (12 hours) prior to the assay. Body weights and blood glucose (FreeStyle Lite glucometer) levels were determined. […] At 30, 60, 90, and 120 minutes glucose levels were measured using whole blood collected from the tip of the tail via needle puncture. Upon the final 120 min measurement, food was returned to the mice.
Oral glucose tolerance tests (OGTTs) were performed as described in Example 1.
as §3, with “puncture.” for “puncture. Upon the final 120 min measurement, food was returned to the mice.”
as §3, with “puncture.” for “puncture. Upon the final 120 min measurement, food was returned to the mice.”

[9] = biological target: GPCR109a (Homo sapiens, UniProt Q8TDS4); settings: doses of 5 mM and below; FIG. 6A
Experimental: (§4) Cells were grown in DMEM medium containing 10% FBS, 1× non-essential amino acids (Gibco #111450-040), 20 mM HEPES and 250 μg/mL Geneticin® (Gibco #10131-035). Cells were harvested with 0.25% Trypsin/EDTA (Gibco #25200-056), pelleted at 1,200×g for 6 minutes and resuspended in DMEM media described above minus Geneticin®. The cells were seeded at 4×10^4 cells/well/100 μL of a clear bottom/black 96-well plate and grown overnight. The calcium mobilization assays was performed using Screen Quest Fluo-8 Medium Removal Calcium Assay Kit (AAT Bioquest #36308) according to the manufacturer's protocol. Briefly, cells were washed with 100 μL volume of Hank's balanced salt solution, 20 mM HEPES, pH 7.4 and loaded with a buffer containing HBSS, 20 mM HEPES, 1× Pluronic F127 and the Fluo-8 NW dye. The cells were incubated for 30 minutes at 37° C. followed by a 30 minute room temperature incubation. Drug stocks were prepared at 100× concentration and diluted 1:33 in HBSS, 20 mM HEPES, pH 7.4 in a 96-well plate (Corning #3641). Calcium mobilization was measured using the FlexStation 3 (Molecular Devices) at excitation wavelength of 490 nm and emission wavelength of 525 nm. Fluorescence was measured for 180 seconds at 5 second intervals with the addition of compound at a 1:3 dilution after 15 seconds. Peak fluorescence values were calculated using SoftMax Pro 5 (Molecular Devices). The fluorescence values obtained from control wells without cells are subtracted from wells containing treated cells to correct for background. The ratio of fluorescence values of treated cells to vehicle control wells was used to calculate fold activity of the compounds.
(§5) The specificity of the agonist activity was determined by testing in the cell lines that over-express GPCR40 and GPCR 109a.

[10] = biological target: GPCR40 (Homo sapiens, UniProt O14842); settings: doses of 5 mM and below; FIG. 7A
Experimental: as §4, §5

[11] = system: STC-1 cells; experiment: GLP-1 secretion from STC-1 cells (ELISA); assay type: cell-based, mouse; settings: 2 hours, DMEM without serum and glucose; FIG. 3
Experimental: The pathways and sites of action of H89 and U73122 are graphically represented in FIG. 2.
Supernatants were collected for GLP-1 measurement. and the GLP-1 concentration was measured using a total GLP-1 (7-36 and 9-36) ELISA kit according to manufacturer's instruction (Alpco. Salem, N.H.).

[12] = biological target: MAS-related G-protein-coupled receptor member D (MRGD) (human, UniProt Q8TDS7 1-321); experiment: cell-based or functional assay
[13] = read-out: percent activation compared to standards, DT-110 @ 1.25 mM, Avg.
[14] = read-out: percent activation compared to standards, DT-110 @ 1.25 mM, n1
[15] = read-out: percent activation compared to standards, DT-110 @ 1.25 mM, n2
[16] = read-out: percent activation compared to standards, DT-110 @ 12.5 mM, Avg.
[17] = read-out: percent activation compared to standards, DT-110 @ 12.5 mM, n1
[18] = read-out: percent activation compared to standards, DT-110 @ 12.5 mM, n2

Sequence of MC4 (P32245 whole entry): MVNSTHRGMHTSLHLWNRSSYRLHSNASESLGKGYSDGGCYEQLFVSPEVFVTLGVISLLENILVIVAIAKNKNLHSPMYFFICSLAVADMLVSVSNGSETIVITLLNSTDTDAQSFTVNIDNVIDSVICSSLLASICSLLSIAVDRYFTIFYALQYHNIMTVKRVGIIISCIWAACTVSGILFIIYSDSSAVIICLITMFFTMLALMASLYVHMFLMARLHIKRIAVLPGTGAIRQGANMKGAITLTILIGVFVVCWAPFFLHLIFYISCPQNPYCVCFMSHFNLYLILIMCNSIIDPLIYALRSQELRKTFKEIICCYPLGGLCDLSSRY
Sequence of NMUR2 (Q9GZQ4 whole entry): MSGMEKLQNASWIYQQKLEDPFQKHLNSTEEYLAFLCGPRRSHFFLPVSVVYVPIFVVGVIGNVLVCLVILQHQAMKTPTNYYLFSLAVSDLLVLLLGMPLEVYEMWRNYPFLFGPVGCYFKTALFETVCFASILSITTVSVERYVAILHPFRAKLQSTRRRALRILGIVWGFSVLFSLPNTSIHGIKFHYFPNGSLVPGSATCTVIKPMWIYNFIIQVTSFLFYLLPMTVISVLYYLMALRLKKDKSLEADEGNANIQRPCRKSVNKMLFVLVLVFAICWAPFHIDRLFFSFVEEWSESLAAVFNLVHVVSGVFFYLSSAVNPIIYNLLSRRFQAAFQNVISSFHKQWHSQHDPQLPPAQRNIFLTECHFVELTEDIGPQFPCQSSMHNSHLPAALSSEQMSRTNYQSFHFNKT
Sequence of Motilin (O43193 whole entry): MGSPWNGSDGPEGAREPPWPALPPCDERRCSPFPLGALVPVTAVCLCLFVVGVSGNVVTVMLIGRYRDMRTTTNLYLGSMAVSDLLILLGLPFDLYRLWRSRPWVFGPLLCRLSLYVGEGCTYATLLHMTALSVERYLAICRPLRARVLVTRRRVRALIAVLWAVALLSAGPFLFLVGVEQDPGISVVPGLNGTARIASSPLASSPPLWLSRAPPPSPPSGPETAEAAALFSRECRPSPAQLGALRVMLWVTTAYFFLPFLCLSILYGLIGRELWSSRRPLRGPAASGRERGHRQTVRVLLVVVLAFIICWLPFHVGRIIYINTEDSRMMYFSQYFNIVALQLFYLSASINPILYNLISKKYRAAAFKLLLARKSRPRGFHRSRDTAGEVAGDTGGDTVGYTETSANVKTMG
Sequence of NPBW1 (P48145 whole entry): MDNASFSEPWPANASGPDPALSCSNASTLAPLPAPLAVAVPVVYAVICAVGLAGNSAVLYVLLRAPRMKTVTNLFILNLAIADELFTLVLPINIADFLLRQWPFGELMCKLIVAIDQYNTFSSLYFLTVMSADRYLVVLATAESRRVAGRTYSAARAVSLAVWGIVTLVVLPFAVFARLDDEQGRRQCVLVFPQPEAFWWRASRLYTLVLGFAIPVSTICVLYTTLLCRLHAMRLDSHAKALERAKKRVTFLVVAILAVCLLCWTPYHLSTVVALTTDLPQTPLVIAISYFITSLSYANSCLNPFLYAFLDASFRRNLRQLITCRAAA
Sequence of NK1 (P25103 whole entry): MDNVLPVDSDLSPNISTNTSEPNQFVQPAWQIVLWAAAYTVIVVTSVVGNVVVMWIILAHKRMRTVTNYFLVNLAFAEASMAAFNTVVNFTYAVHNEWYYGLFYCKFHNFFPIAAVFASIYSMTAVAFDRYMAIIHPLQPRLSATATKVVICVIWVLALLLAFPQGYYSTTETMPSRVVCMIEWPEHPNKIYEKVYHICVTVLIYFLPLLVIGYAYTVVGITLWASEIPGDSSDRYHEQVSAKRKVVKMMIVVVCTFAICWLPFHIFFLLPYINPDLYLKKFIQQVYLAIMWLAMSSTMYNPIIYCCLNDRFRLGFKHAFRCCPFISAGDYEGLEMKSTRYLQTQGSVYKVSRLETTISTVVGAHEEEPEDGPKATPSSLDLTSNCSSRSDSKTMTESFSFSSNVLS
Sequence of MC5 (P33032 whole entry): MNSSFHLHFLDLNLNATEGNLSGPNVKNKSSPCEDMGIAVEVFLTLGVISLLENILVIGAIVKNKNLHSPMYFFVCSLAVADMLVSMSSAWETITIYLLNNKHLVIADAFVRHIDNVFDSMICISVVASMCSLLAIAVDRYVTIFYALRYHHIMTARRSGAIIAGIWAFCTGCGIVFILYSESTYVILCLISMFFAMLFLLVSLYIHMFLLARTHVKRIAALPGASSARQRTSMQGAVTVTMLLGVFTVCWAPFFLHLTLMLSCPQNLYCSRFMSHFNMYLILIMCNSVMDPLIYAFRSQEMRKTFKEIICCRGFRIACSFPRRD
Sequence of MAS-related G-protein-coupled receptor member D (MRGD) (Q8TDS7 whole entry): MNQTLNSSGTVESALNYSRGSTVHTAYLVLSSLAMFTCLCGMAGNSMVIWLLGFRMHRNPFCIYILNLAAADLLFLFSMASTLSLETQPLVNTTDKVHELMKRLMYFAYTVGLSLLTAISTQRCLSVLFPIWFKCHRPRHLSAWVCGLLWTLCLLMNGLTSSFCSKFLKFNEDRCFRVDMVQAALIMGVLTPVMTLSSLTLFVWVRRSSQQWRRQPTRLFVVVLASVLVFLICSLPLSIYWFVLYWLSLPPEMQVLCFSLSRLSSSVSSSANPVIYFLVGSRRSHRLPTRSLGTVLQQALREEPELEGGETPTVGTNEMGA
Sequence of GPCR40 (O14842 whole entry): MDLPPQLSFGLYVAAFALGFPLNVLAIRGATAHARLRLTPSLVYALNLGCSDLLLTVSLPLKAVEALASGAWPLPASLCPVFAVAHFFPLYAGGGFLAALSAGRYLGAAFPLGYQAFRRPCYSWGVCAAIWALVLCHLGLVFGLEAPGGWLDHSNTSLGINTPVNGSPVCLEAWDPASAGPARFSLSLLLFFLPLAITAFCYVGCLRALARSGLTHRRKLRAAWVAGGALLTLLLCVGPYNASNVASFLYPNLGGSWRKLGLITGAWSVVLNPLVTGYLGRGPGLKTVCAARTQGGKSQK
Sequence of GPCR109a (Q8TDS4 whole entry): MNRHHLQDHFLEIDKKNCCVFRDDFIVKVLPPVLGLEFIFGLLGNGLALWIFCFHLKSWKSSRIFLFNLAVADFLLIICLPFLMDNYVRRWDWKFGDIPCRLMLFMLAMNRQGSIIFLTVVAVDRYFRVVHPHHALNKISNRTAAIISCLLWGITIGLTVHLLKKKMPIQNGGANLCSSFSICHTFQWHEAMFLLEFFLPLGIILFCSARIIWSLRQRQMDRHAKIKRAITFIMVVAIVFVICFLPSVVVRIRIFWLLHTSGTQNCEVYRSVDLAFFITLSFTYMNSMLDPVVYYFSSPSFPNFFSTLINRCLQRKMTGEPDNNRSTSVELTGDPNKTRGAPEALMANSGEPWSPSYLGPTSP

With CC(C)C[C@@H](NC(=O)CNC(=O)CN)C(=O)O the “real-time Ca2+ flux” value [1] was “stimulate greater Ca^2+ flux”, the activation at 1250 µM [2, 13] was -0.9% and the activation at 1250 µM [2, 14] was -1%. It also gave an activation at 1250 µM [2, 15] of -0.9%, an activation at 12500 µM [2, 16] of -1.1% and an activation at 12500 µM [2, 17] of -1%. For the same molecule, the activation at 12500 µM [2, 18] was -1.1%, the activation at 1250 µM [3, 13] was 0% and the activation at 1250 µM [3, 14] was 0.7%. It also gave an activation at 1250 µM [3, 15] of -0.8%, an activation at 12500 µM [3, 16] of -0.3% and an activation at 12500 µM [3, 17] of -0.6%. The activation at 12500 µM [3, 18] was 0%, the activation at 1250 µM [4, 13] was 2.4% and the activation at 1250 µM [4, 14] was 0.9%. For the same molecule, the activation at 1250 µM [4, 15] was 3.9%, the activation at 12500 µM [4, 16] was -0.9% and the activation at 12500 µM [4, 17] was 0.4%. The activation at 12500 µM [4, 18] was -2.2%, the activation at 1250 µM [5, 13] was -0.3% and the activation at 1250 µM [5, 14] was -0.3%. It also gave an activation at 1250 µM [5, 15] of -0.3%, an activation at 12500 µM [5, 16] of -0.4% and an activation at 12500 µM [5, 17] of -0.3%. It also gave an activation at 12500 µM [5, 18] of -0.5%, an activation at 1250 µM [6, 13] of 0.2% and an activation at 1250 µM [6, 14] of 1.6%. It also gave an activation at 1250 µM [6, 15] of -1.1%, an activation at 12500 µM [6, 16] of -0.9% and an activation at 12500 µM [6, 17] of -0.8%. The activation at 12500 µM [6, 18] was -0.9%, the activation at 1250 µM [7, 13] was -0.5% and the activation at 1250 µM [7, 14] was 3%. It also gave an activation at 1250 µM [7, 15] of -4%, an activation at 12500 µM [7, 16] of 3.4% and an activation at 12500 µM [7, 17] of -0.2%. The activation at 12500 µM [7, 18] was 7%, the “significance of blood glucose lowering in OGTT” value ([8]; Example 5, FIG. 9, 0.1 mg/g) was “significant” and the “significance of blood glucose lowering in OGTT” value ([8]; Example 5, FIG. 9, 0.5 mg/g) was “significant”. For the same molecule, the “significance of blood glucose lowering in OGTT” value ([8]; Example 5, FIG. 9, 1 mg/g) was “significant”, the “blood glucose in response to a glucose load (OGTT)” value ([8]; Example 5, FIG. 9, 1, 0.5 and 0.1 mg/g body weight) was “lower blood glucose in response to a glucose load, in a dose-dependent manner” and the “overall effect on blood glucose compared with metformin” value ([8]; Example 9) was “not found to be significantly different”. The “overall effect on blood glucose in OGTT vs vehicle” value ([8]; Example 9, FIG. 14, DT-110 1 mg/g, alamandine 10 mg/g, metformin 0.2 mg/g) was “significant”, the “rise in blood glucose at 30 min in OGTT” value ([8]; Example 9, DT-110 1 mg/g, P<0.001 vs. all other treatments) was “dramatically blocked the rise in blood glucose” and the “effect on blood glucose compared with alamandine” value ([8]; Example 9, P<0.001) was “significantly different from alamandine”. The “agonist activity (Ca2+ flux)” value [9] was “inactive”, the “agonist activity (Ca2+ flux)” value [10] was “inactive” and the “release of GLP-1 by STC-1 cells” value [11] was “stimulated significant release of GLP-1”.

For Gly-Gly-[dL] [DT-110, tripeptide glycine-glycine-D-leucine (GGdL)], the “EC50, calcium mobilization in MRGD cells (FIG. 12)” value [12] was about 360 µM, the “EC50, calcium mobilization in MRGD over-expressing cells (FIG. 5)” value [12] was 76 µM and the “EC50, calcium mobilization in the MRGD cell line (FIG. 8)” value [12] was 161 µM.
